Data on six compounds can be found in ChEMBL document CHEMBL1142680, “Improving specificity vs bacterial thymidylate synthases through N-dansyl modulation of didansyltyrosine” (J Med Chem, 2005).

The target in assay [1] is T1, Thymidylate synthase (Lactobacillus casei, UniProt P00469).
T1 sequence (P00469 whole entry): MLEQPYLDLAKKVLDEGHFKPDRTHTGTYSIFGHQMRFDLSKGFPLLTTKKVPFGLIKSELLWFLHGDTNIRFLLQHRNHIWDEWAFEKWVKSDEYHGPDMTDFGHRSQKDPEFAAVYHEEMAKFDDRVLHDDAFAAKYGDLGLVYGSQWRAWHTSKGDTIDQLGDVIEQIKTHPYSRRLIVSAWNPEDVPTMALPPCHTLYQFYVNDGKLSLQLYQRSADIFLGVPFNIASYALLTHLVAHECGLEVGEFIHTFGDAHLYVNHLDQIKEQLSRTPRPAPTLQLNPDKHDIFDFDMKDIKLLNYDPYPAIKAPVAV
Put plainly: Inhibitory constant against thymidylate synthase from Lactobacillus casei. Further details: species or system Lacticaseibacillus casei.

Assay [2] deals with Thymidylate synthase (Escherichia coli, UniProt C3SWJ7). Description: Inhibitory constant against thymidylate synthase from Escherichia coli.
Sequence of Thymidylate synthase (Escherichia coli, UniProt C3SWJ7) (C3SWJ7 whole entry): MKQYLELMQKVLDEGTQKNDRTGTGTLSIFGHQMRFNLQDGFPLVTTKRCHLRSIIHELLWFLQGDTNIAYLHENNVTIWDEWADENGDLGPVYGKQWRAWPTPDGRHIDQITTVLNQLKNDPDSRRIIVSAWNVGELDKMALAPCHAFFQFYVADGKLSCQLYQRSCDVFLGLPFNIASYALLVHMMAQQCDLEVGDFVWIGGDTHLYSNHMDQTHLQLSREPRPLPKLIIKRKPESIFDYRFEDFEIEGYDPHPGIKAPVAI

pKi: −log10 of the molar value.

As usually defined, the pKi is the negative decadic logarithm of the Ki, by convention in mol/L. Take `CN(C)c1cccc2c(S(=O)(=O)N[C@@H](Cc3ccc(OS(=O)(=O)c4cccc5c(N(C)C)cccc45)cc3)C(=O)O)cccc12`: the negative-log Ki (pKi) on Thymidylate synthase [1] was 5.85; on Thymidylate synthase [2] it was 5.74.

For the compound `CN(C)c1cccc2c(S(=O)(=O)Oc3ccc(C[C@H](NS(=O)(=O)c4cc5nnoc5c5ccccc45)C(=O)O)cc3)cccc12`, the pKi at Thymidylate synthase [1] is 5.80; at Thymidylate synthase [2] it was 4.82.

With `CN(C)c1cccc2c(S(=O)(=O)Oc3ccc(C[C@H](NS(=O)(=O)c4cccc5cc(N)ccc45)C(=O)O)cc3)cccc12`, the negative-log Ki (pKi) at Thymidylate synthase [1] was 6.30; at Thymidylate synthase [2], 6.52.

Turning to `CN(C)c1cccc2c(S(=O)(=O)Oc3ccc(C[C@H](NS(=O)(=O)c4cccc5c(NC(=O)OCc6ccccc6)cccc45)C(=O)O)cc3)cccc12`, the negative logarithm of the Ki (pKi) on Thymidylate synthase [1] is 7.00; on Thymidylate synthase [2] it was 5.03.

Consider `CN(C)c1cccc2c(S(=O)(=O)Oc3ccc(C[C@H](NS(=O)(=O)c4cccc5cc([N+](=O)[O-])ccc45)C(=O)O)cc3)cccc12`, for which the negative logarithm of the Ki (pKi) on Thymidylate synthase [1] and at Thymidylate synthase [2] was 6.52 each time.

With `CN(C)c1cccc2c(S(=O)(=O)Oc3ccc(C[C@H](NS(=O)(=O)c4ccc(NC(=O)OCc5ccccc5)c5ccccc45)C(=O)O)cc3)cccc12`, the pKi was 5.77 at Thymidylate synthase [1] and 5.82 on Thymidylate synthase [2].
